Data reported in patent US6914045B2, “Glycopeptide antibiotics” (Wyeth Holdings Corporation, priority 2001, dated 2005).
In brackets after ≈: the same amount, converted by molar mass.

How the values were obtained:
Assay in all cases: in vitro antibacterial evaluation, MIC by broth dilution
Format in all cases: cell-based
Escherichia coli = details: 18 hours at 35° C.
Streptococcus sp. = details: broth dilution, 18 hours at 35° C.
How it was run: (§1)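 Following National Committee for Clinical Laboratory Standards recommendations (M7-A2), susceptibility was measured by dilution in Muller-Hinton II […]. Bacteria were seeded at 5×10^5 CFU/mL against compound concentrations from 64 down to 0.06 μg/mL.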

Staphylococcus sp. = details: broth dilution, 18 hours at 35° C.
How it was run: as §1

Enterococcus sp. = details: broth dilution, 18 hours at 35° C.
How it was run: as §1

CC(c1ccccc1)C1NC(=O)CNC(=O)C(CO)NC(=O)C(C(O)C2CN(c3nc4ccccc4o3)C(=N)N2C2OC(CO)C(O)C(O)C2O)NC(=O)C(C(O)C2CNC(=Nc3nc4ccccc4o3)N2)NC(=O)C(Cc2ccc(OC3OC(CO)C(OC4OC5COC6(OC5C(O)C4O)C4CC5CC(C4)CC6C5)C(O)C3O)cc2)NC1=O (stereo not drawn) [Example 227]
MIC Escherichia coli (ATCC 25922) (Escherichia coli): >128 µg/mL
MIC Escherichia coli (GC 4559) (Escherichia coli): >128 µg/mL
MIC Escherichia coli (GC 4560) (Escherichia coli): 8 µg/mL (≈ 4.81 µM)
MIC Streptococcus agalactiae (GC 4564) (Streptococcus sp.): 4 µg/mL (≈ 2.41 µM)
MIC Streptococcus pneumoniae (ATCC 6301) (Streptococcus sp.): 32 µg/mL (≈ 19.3 µM)
MIC Streptococcus pneumoniae (GC 1894) (Streptococcus sp.): 32 µg/mL (≈ 19.3 µM)
MIC Streptococcus pneumoniae (GC 4565) (Streptococcus sp.): 64 µg/mL (≈ 38.5 µM)
MIC Streptococcus pyogenes (GC 4563) (Streptococcus sp.): 32 µg/mL (≈ 19.3 µM)
MIC Streptococcus pneumoniae (ATCC 6301) (Streptococcus sp.; inoculum 5×10^5 CFU/mL, strain ATCC 6301): 32 µg/mL (≈ 19.3 µM)
MIC Streptococcus pneumoniae (GC 1894) (Streptococcus sp.; inoculum 5×10^5 CFU/mL, strain GC 1894): 32 µg/mL (≈ 19.3 µM)
MIC Streptococcus pyogenes (GC 4563) (Streptococcus sp.; inoculum 5×10^5 CFU/mL, strain GC 4563): 32 µg/mL (≈ 19.3 µM)
MIC Streptococcus agalactiae (GC 4564) (Streptococcus sp.; inoculum 5×10^5 CFU/mL, strain GC 4564): 64 µg/mL (≈ 38.5 µM)
MIC Streptococcus pneumoniae (GC 4565) (Streptococcus sp.; inoculum 5×10^5 CFU/mL, strain GC 4565): 64 µg/mL (≈ 38.5 µM)
MIC Coagulase Negative Staphylococcus (GC 4547) (Staphylococcus sp.): 32 µg/mL (≈ 19.3 µM)
MIC Coagulase Negative Staphylococcus (GC 4548) (Staphylococcus sp.): 4 µg/mL (≈ 2.41 µM)
MIC Coagulase Negative Staphylococcus (GC 4549) (Staphylococcus sp.): 32 µg/mL (≈ 19.3 µM)
MIC Coagulase Negative Staphylococcus (GC 4551) (Staphylococcus sp.): 8 µg/mL (≈ 4.81 µM)
MIC Staphylococcus aureus-SMITH (GC 4543) (Staphylococcus sp.): 128 µg/mL (≈ 77 µM)
MIC Staphylococcus haemolyticus (GC 4546) (Staphylococcus sp.): 64 µg/mL (≈ 38.5 µM)
MIC Staphylococcus aureus-SMITH (GC 4543) (Staphylococcus sp.; strain GC 4543): 128 µg/mL (≈ 77 µM)
MIC Staphylococcus haemolyticus (GC 4546) (Staphylococcus sp.; strain GC 4546): 64 µg/mL (≈ 38.5 µM)
MIC Coagulase Negative Staphylococcus (GC 4547) (Staphylococcus sp.; strain GC 4547): 32 µg/mL (≈ 19.3 µM)
MIC Coagulase Negative Staphylococcus (GC 4548) (Staphylococcus sp.; strain GC 4548): 4 µg/mL (≈ 2.41 µM)
MIC Coagulase Negative Staphylococcus (GC 4549) (Staphylococcus sp.; strain GC 4549): 32 µg/mL (≈ 19.3 µM)
MIC Coagulase Negative Staphylococcus (GC 4551) (Staphylococcus sp.; strain GC 4551): 8 µg/mL (≈ 4.81 µM)
MIC Staphylococcus aureus (ATCC 29213) (Staphylococcus sp.; strain ATCC 29213): 128 µg/mL (≈ 77 µM)
MIC Staphylococcus aureus (GC 1131) (Staphylococcus sp.; strain GC 1131): 128 µg/mL (≈ 77 µM)
MIC Staphylococcus aureus (GC 3051) (Staphylococcus sp.; strain GC 3051): 128 µg/mL (≈ 77 µM)
MIC Staphylococcus aureus (GC 3053) (Staphylococcus sp.; strain GC 3053): >128 µg/mL
MIC Staphylococcus aureus (GC 4541) (Staphylococcus sp.; strain GC 4541): 128 µg/mL (≈ 77 µM)
MIC Staphylococcus aureus (GC 4542) (Staphylococcus sp.; strain GC 4542): 128 µg/mL (≈ 77 µM)
MIC Staphylococcus aureus (GC 4544) (Staphylococcus sp.; strain GC 4544): 128 µg/mL (≈ 77 µM)
MIC Staphylococcus aureus (GC 4545) (Staphylococcus sp.; strain GC 4545): 128 µg/mL (≈ 77 µM)
MIC Enterococcus avium (GC 4558) (Enterococcus sp.): 8 µg/mL (≈ 4.81 µM)
MIC Enterococcus faecalis (ATCC 29212) (Enterococcus sp.): 64 µg/mL (≈ 38.5 µM)
MIC Enterococcus faecalis (GC 2242) (Enterococcus sp.): 64 µg/mL (≈ 38.5 µM)
MIC Enterococcus faecalis (GC 2691) (Enterococcus sp.): 64 µg/mL (≈ 38.5 µM)
MIC Enterococcus faecalis (GC 3059) (Enterococcus sp.): 128 µg/mL (≈ 77 µM)
MIC Enterococcus faecalis (GC 4552) (Enterococcus sp.): 64 µg/mL (≈ 38.5 µM)
MIC Enterococcus faecalis (GC 4553) (Enterococcus sp.): 8 µg/mL (≈ 4.81 µM)
MIC Enterococcus faecalis (GC 4554) (Enterococcus sp.): 128 µg/mL (≈ 77 µM)
MIC Enterococcus faecalis (GC 6189) (Enterococcus sp.): 64 µg/mL (≈ 38.5 µM)
MIC Enterococcus faecium (GC 2243) (Enterococcus sp.): 32 µg/mL (≈ 19.3 µM)
MIC Enterococcus faecium (GC 4556) (Enterococcus sp.): 64 µg/mL (≈ 38.5 µM)
MIC Enterococcus faecium (GC 4557) (Enterococcus sp.): 8 µg/mL (≈ 4.81 µM)
MIC Enterococcus faecalis (ATCC 29212) (Enterococcus sp.; inoculum 5×10^5 CFU/mL, strain ATCC 29212): 64 µg/mL (≈ 38.5 µM)
MIC Enterococcus faecalis (GC 2242) (Enterococcus sp.; inoculum 5×10^5 CFU/mL, strain GC 2242): 64 µg/mL (≈ 38.5 µM)
MIC Enterococcus faecium (GC 2243) (Enterococcus sp.; inoculum 5×10^5 CFU/mL, strain GC 2243): 32 µg/mL (≈ 19.3 µM)
MIC Enterococcus faecalis (GC 2691) (Enterococcus sp.; inoculum 5×10^5 CFU/mL, strain GC 2691): 64 µg/mL (≈ 38.5 µM)
MIC Enterococcus faecalis (GC 3059) (Enterococcus sp.; inoculum 5×10^5 CFU/mL, strain GC 3059): 128 µg/mL (≈ 77 µM)
MIC Enterococcus faecalis (GC 4552) (Enterococcus sp.; inoculum 5×10^5 CFU/mL, strain GC 4552): 64 µg/mL (≈ 38.5 µM)
MIC Enterococcus faecalis (GC 4553) (Enterococcus sp.; inoculum 5×10^5 CFU/mL, strain GC 4553): 8 µg/mL (≈ 4.81 µM)
MIC Enterococcus faecalis (GC 4554) (Enterococcus sp.; inoculum 5×10^5 CFU/mL, strain GC 4554): 128 µg/mL (≈ 77 µM)
MIC Enterococcus faecium (GC 4556) (Enterococcus sp.; inoculum 5×10^5 CFU/mL, strain GC 4556): 64 µg/mL (≈ 38.5 µM)
MIC Enterococcus faecium (GC 4557) (Enterococcus sp.; inoculum 5×10^5 CFU/mL, strain GC 4557): 8 µg/mL (≈ 4.81 µM)
MIC Enterococcus avium (GC 4558) (Enterococcus sp.; inoculum 5×10^5 CFU/mL, strain GC 4558): 8 µg/mL (≈ 4.81 µM)
MIC Enterococcus faecalis (GC 6189) (Enterococcus sp.; inoculum 5×10^5 CFU/mL, strain GC 6189): 64 µg/mL (≈ 38.5 µM)
